Results as given in patent publication US6558900B2, “Regulation of apoptosis and in vitro model for studies thereof” (Emory University, priority 1996, dated 2003).

Key:
Assay type in all cases: biochemical
[1] = system: CPP32; test: dATP and cytochrome c-dependent activation of CPP32 in S-100 from human monoblastic U937 cells
Procedure: (§1) FIG. 8 illustrates dATP and cytochrome c-dependent activation of CPP32 in S-100 cytosol preparations (immunodepleted of cytochrome c) from human embryonic kidney 293 cells and human monoblastic U937 cells. CPP32 activation reactions were carried out as described in FIG. 7 except 25 μg of S-100 was used in each reaction. 1 mM of dATP was present in lanes 2, 4, 6, 8, 10, and 12. Lanes 1 and 2, S-100 fraction from 293 cells; Lanes 3-4, S-100 fraction from 293 cells immunodepleted of cytochrome c; lanes 5 and 6, S-100 fraction from 293 cells immunodepleted of cytochrome c supplemented with 0.2 μg of Apaf-2 purified through the Mono S column step; Lanes 7 and 8, S-100 fraction from U937 cells; […], S-100 fraction from U937 cells immunodepleted of cytochrome c; lanes 11,12, S-100 fraction from U937 cells immunodepleted of cytochrome c supplemented with 0.2 μg of Apaf-2 purified through Mono S column step.
(§2) To investigate whether the dATP and cytochrome c-dependent activation of CPP32 is a general phenomenon, cytosols were prepared from human embryonic kidney 293 cells and human monoblastic leukemia U937 cells.
(§3) 293 cells were set up at 5×10^5 cells per 100 mm dish in medium A [Dulbecco's modified Eagle's medium (DMEM) supplemented with 10% (v/v) heat-inactivated fetal calf serum, 100 U/ml penicillin and 100 μg/ml streptomycin sulfate]. […]

[2] = system: CPP32; test: dATP and cytochrome c-dependent activation of CPP32 in S-100 from human embryonic kidney 293 cells
Procedure: as §1, §2, §3

[3] = system: hamster liver nuclei; test: DNA fragmentation assay (HeLa S-100 incubated with hamster liver nuclei); conditions: 1 mM nucleotide, 37° C., 2 hr
Procedure: FIGS. 1A-1D illustrate dATP-dependent activation of CPP32 and DNA fragmentation in vitro. Aliquots (10 μl) of HeLa cell S-100 (50 μg) were incubated alone (lane 1), in the presence of 1 mM ATP (lane 2), or in the presence of 1 mM dATP (lane 3) at 30° C. for 1 hr in a final volume of 20 μl of buffer A. FIG. 1A, samples were subjected to SDS-PAGE and transferred to a nitrocellulose filter, probed with a monoclonal anti-CPP32 antibody, and the antigen/antibody complex was visualized by the ECL method. The filter was exposed to Kodak X-OMAT AR X-ray film for 1 min. In FIG. 1B, an aliquot of 10 μl of in vitro translated, ^35S-labeled PARP was added to each reaction. After 5 min, the samples were subjected to SDS-PAGE and transferred to a nitrocellulose filter. The filter was exposed to film for 2 hr at room temperature. In FIG. 1C, a 5 μl aliquot of in vitro translated, ^35S-labeled SREBP-2 was added to each reaction. After incubation at 30° C. for 30 min, the samples were subjected to SDS-PAGE, the gel was dried and exposed to film for 2 hr at room temperature. […]
FIGS. 2A-2B illustrate the nucleotide specificity for in vitro activation of CPP32 and DNA fragmentation. […] The DNA was isolated, analyzed by 2% agarose gel electrophoresis and visualized by ethidium bromide staining. […]

| Compound | dATP-dependent CPP32 activating activity of S-100 ([1]; U937 cell S-100, 1 mM dATP) | dATP-dependent CPP32 activating activity of S-100 ([2]; 293 cell S-100, 1 mM dATP) | DNA fragmentation in hamster liver nuclei [3] | restoration of CPP32 activating activity ([1]; U937 cell S-100 immunodepleted of cytochrome c, 0.2 μg, 1 mM dATP) | restoration of CPP32 activating activity ([2]; 293 cell S-100 immunodepleted of cytochrome c, 0.2 μg, 1 mM dATP) |
| --- | --- | --- | --- | --- | --- |
| Nc1ncnc2c1ncn2[C@H]1C[C@H](O)[C@@H](COP(=O)(O)OP(=O)(O)OP(=O)(O)O)O1 [dATP, deoxyadenosine-5-triphosphate] | contained a dATP-dependent CPP32 activating activity | contained a dATP-dependent CPP32 activating activity | induced DNA fragmentation | – | – |
| Apaf-2: 15 kDa factor bound to phosphocellulose column, purified from HeLa S-100, identified as human cytochrome c | – | – | – | restored the activity | restored the activity |
